Experimental data as given in patent US20080269213A1, “8-Hydroxyquinoline compounds and methods thereof” (Wyeth, priority 2006, published 2008).
Where “and” joins values, the source holds several entries; their conditions need not be identical. Identical values can stand only once. Like-named read-outs stand apart in the source and are kept apart here.

Legend:
[1] = target: T1, recombinant human Aggrecanase-2 Agg2-Phe628 (Homo sapiens, UniProt Q9UNA0); assay: Aggrecanase 2 in vitro enzyme assay (Agg-2 FRET, quenched fluorescent peptide substrate); assay type: biochemical; parameters: purified recombinant human Aggrecanase-2 Agg2-Phe628 (MW=41,737); This is a truncated form of full-length human aggrecanase-2; made in house; host or cells: CHO cells; conditions: for inhibition at […]: @ 2500 nM
T1 sequence (Q9UNA0 262-628 limits assumed): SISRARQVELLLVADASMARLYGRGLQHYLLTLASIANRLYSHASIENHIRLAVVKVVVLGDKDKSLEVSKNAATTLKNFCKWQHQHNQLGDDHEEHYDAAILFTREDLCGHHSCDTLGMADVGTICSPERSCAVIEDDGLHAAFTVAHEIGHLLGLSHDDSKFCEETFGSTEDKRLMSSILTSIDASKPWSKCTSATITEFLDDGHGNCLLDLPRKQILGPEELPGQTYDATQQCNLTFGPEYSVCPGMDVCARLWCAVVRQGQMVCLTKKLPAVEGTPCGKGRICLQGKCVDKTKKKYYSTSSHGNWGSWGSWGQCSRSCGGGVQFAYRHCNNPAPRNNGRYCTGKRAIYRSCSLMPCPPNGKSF
How it was run: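 Kinetic fluorescence (λex 340, λem 420 nm) monitored over 40 min at 30 °C after adding 25 μM final Abz/Dnp brevican-based quenched peptide. Enzyme: recombinant truncated human Agg2-Phe628 from CHO, 0.5 μg/ml final, mixed with inhibitor first; buffer HEPES pH 7.5 with NaCl, CaCl2, CHAPS, glycerol; compounds in duplicate.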

[2] = target: T2, Agg-1 (Homo sapiens, UniProt O75173); assay: Agg-1 FRET assay; assay type: biochemical; conditions: for IC50: read-out: Agg1 IC50; for inhibition at 33 µM: @ 33000 nM; for inhibition at 22 µM: @ 22000 nM
T2 sequence (O75173 213-837): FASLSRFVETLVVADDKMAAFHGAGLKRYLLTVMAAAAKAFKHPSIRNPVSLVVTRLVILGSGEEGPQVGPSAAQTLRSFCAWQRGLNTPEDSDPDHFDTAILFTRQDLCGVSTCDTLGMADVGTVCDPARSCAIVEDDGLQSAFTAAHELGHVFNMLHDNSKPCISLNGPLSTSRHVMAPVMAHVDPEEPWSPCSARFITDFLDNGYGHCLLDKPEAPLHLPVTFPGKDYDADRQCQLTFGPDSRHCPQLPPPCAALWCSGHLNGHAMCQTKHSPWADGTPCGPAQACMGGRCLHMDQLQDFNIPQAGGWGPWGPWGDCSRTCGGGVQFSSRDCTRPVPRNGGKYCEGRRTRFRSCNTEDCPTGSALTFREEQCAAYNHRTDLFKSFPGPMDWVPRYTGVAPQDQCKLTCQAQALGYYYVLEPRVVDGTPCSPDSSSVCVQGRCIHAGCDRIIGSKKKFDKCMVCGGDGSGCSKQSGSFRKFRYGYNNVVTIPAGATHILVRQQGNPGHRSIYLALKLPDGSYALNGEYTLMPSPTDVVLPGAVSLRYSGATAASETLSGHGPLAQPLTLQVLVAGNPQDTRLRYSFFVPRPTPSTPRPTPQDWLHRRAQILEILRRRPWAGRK
Text: The Agg-1/Agg-2 FRET data for N-[(8-hydroxyquinolin-2-yl)(phenyl)methyl]-2-phenoxyacetamide and 2-{[(phenoxyacetyl)amino](phenyl)methyl}quinolin-8-yl phenoxyacetate is presented in Table 1.

[3] = read-out: Agg-2 FRET Median IC50

SMILES | IC50 ([1]; read-out: Agg2 IC50) [µM] | IC50 [1, 3] | IC50 [2] [µM] | further results
O=C(COc1ccccc1)NC(c1ccoc1)c1cc(Cl)c2cccnc2c1O (stereo not shown) [N-[(5-chloro-8-hydroxyquinolin-7-yl)(3-furyl)methyl]-2-phenoxyacetamide] | 3.46 | 3.46 µM | > 22 | 
Cc1ccsc1C(NC(=O)COc1ccccc1)c1cc(Cl)c2cccnc2c1O (stereo not shown) [N-[(5-chloro-8-hydroxyquinolin-7-yl)(3-methyl-2-thienyl)methyl]-2-phenoxyacetamide] | 1.37 | 1.37 µM |  | inhibition at 33 µM ([2]; read-out: Agg1 %): 33%
Cc1ccsc1C(NC(=O)Cc1ccccc1)c1cc(Cl)c2cccnc2c1O (stereo not shown) [N-[(5-chloro-8-hydroxyquinolin-7-yl)(3-methyl-2-thienyl)methyl]-2-phenylacetamide] | 2.54 | 2.54 µM |  | inhibition at 20 µM ([2]; @ 20000 nM, read-out: Agg1 %): 52%
O=C(COc1ccccc1)NC(c1cccc([N+](=O)[O-])c1)c1cc(Cl)c2cccnc2c1O (stereo not shown) [N-[(5-chloro-8-hydroxyquinolin-7-yl)(3-nitrophenyl)methyl]-2-phenoxyacetamide] | 1.23 | 1.23 µM and 0.488 µM |  | inhibition at 22 µM ([2]; read-out: Agg1 %): 53%
O=C(COc1ccccc1)NC(c1ccc(F)cc1)c1cc(Cl)c2cccnc2c1O (stereo not shown) [N-[(5-chloro-8-hydroxyquinolin-7-yl)(4-fluorophenyl)methyl]-2-phenoxyacetamide] | 1.2 |  |  | inhibition at 67 µM ([2]; @ 67000 nM, read-out: Agg1 %): 48%
O=C(Cc1ccccc1)NC(c1ccc(F)cc1)c1cc(Cl)c2cccnc2c1O (stereo not shown) [N-[(5-chloro-8-hydroxyquinolin-7-yl)(4-fluorophenyl)methyl]-2-phenylacetamide] | 2.14 | 2.14 µM |  | inhibition at 3.7 µM ([2]; @ 3700 nM, read-out: Agg1 %): 33%
CCCCC#Cc1ccc(C(NC(=O)COc2ccccc2)c2cc(Cl)c3cccnc3c2O)cc1 (stereo not shown) [N-[(5-chloro-8-hydroxyquinolin-7-yl)(4-hex-1-yn-1-ylphenyl)methyl]-2-phenoxyacetamide] |  |  |  | inhibition at 33.3 µM ([1]; @ 33300 nM): 48%; inhibition at 50 µM ([2]; @ 50000 nM, read-out: Agg1 %): 47%
CC(C)c1ccc(C(NC(=O)COc2ccccc2)c2cc(Cl)c3cccnc3c2O)cc1 (stereo not shown) [N-[(5-chloro-8-hydroxyquinolin-7-yl)(4-isopropylphenyl)methyl]-2-phenoxyacetamide] |  |  |  | inhibition at […] [1]: 45%; inhibition at 33 µM ([2]; read-out: Agg1 %): 47%
O=C(COc1ccccc1)NC(c1cc(Cl)c2cccnc2c1O)c1cc2ccccc2c2ccccc12 (stereo not shown) [N-[(5-chloro-8-hydroxyquinolin-7-yl)(9-phenanthryl)methyl]-2-phenoxyacetamide] |  |  |  | inhibition at 11 µM ([1]; @ 11000 nM): 51%; inhibition at 33 µM ([2]; read-out: Agg1 %): 54%

Continued, in another order:

IC50 ([1]; read-out: Agg2 IC50) [µM] | IC50 [1, 3] | IC50 [2] [µM] | SMILES | further results
0.8 |  |  | COc1ccc(C(NC(=O)COc2ccccc2)c2cc(Cl)c3cccnc3c2O)c2ccccc12 (stereo not shown) [N-[(5-chloro-8-hydroxyquinolin-7-yl)(4-methoxy-1-naphthyl)methyl]-2-phenoxyacetamide] | inhibition at 22 µM ([2]; read-out: Agg1 %): 62%
 |  | ~11 | O=C(COc1ccccc1)NC(c1cc(Cl)c2cccnc2c1O)c1coc2ccccc2c1=O (stereo not shown) [N-[(5-chloro-8-hydroxyquinolin-7-yl)(4-oxo-4H-chromen-3-yl)methyl]-2-phenoxyacetamide] | inhibition at […] [1]: 72%
 |  | 4.7 | O=C(COc1ccccc1)NC(c1ccc(-c2ccncc2)cc1)c1cc(Cl)c2cccnc2c1O (stereo not shown) [N-[(5-chloro-8-hydroxyquinolin-7-yl)(4-pyridin-4-ylphenyl)methyl]-2-phenoxyacetamide] | inhibition at 0.8 µM ([1]; @ 800 nM): 48%
2.32 | 2.33 µM | > 22 | Cc1ccc(C(NC(=O)COc2ccccc2)c2cc(Cl)c3cccnc3c2O)o1 (stereo not shown) [N-[(5-chloro-8-hydroxyquinolin-7-yl)(5-methyl-2-furyl)methyl]-2-phenoxyacetamide] | 
> 5 |  | > 22 | O=C(COc1ccccc1)NC(c1ccc(-c2ccccc2)o1)c1cc(Cl)c2cccnc2c1O (stereo not shown) [N-[(5-chloro-8-hydroxyquinolin-7-yl)(5-phenyl-2-furyl)methyl]-2-phenoxyacetamide] | Agg-2 FRET Median PCT INHIB ([1]; concentration not given): 54%
1.2 |  |  | Cc1ccc2occ(C(NC(=O)COc3ccccc3)c3cc(Cl)c4cccnc4c3O)c(=O)c2c1 (stereo not shown) [N-[(5-chloro-8-hydroxyquinolin-7-yl)(6-methyl-4-oxo-4H-chromen-3-yl)methyl]-2-phenoxyacetamide] | inhibition at 7.4 µM ([2]; @ 7400 nM, read-out: Agg1 %): 43%
